Source: patent publication US20140228314A1, “METHOD FOR PREPARATION OF CHITOSAN OLiGOSACCHARIDES COMPOSITION AND MIXTURE OF CHITOSAN OLiGOSACCHARIDES PREPARED THEREFROM” (KUNPOONG BIO CO., LTD, priority 2013, published 2014)

Test system: SD rats
Assay: Inhibition of postprandial blood glucose rise per saccharide (sucrose load)
Type: in vivo, rat
Settings: 100 mg/kg oral with 2 g/kg sucrose, control 207.8
Method: To SD rats, 100 mg/kg (based on body weight) of each of standard substances from monosaccharide to tetra-saccharide and 2 g/kg (based on body weight) of sucrose were orally administered by 1 ml/rat using an oral administration sonde. At 30 minutes, 60 minutes and 120 minutes after the oral administration, blood was collected from the tail vein of each SD rat and a change in blood glucose concentration in venous blood was measured using a blood glucose meter (CareSens II).

Structure (SMILES) | blood glucose at 30 minutes after the meal
N[C@H]1C(O)O[C@H](CO)[C@@H](O)[C@@H]1O (stereo partly drawn) [monosaccharide] | 210.7 mg/dL
N[C@H]1[C@H](O[C@H]2[C@H](O)[C@@H](N)[C@H](O[C@H]3[C@H](O)[C@@H](N)C(O)O[C@@H]3CO)O[C@@H]2CO)O[C@H](CO)[C@@H](O)[C@@H]1O (stereo partly drawn) [trisaccharide] | 179.4 mg/dL
N[C@H]1[C@H](O[C@H]2[C@H](O)[C@@H](N)C(O)O[C@@H]2CO)O[C@H](CO)[C@@H](O)[C@@H]1O (stereo partly drawn) [disaccharide] | 177.6 mg/dL
